5 molecules from patent publication US20230234957A1, “PROTEIN TAG TO INDUCE LIGAND DEPENDENT DEGRADATION OF PROTEIN/PROTEIN-FUSIONS” (DANA-FARBER CANCER INSTITUTE, INC., priority 2020, published 2023) can be followed below.

“Also recorded” adds a separate entry of the source. Like-named read-outs stand apart in the source and are kept apart here.

Series [1] has as its target T1, BRD4BD1 L94V (Homo sapiens, UniProt O60885, L94V). As to the kind of experiment: FITC-JQ1 displacement fluorescence polarization competitive binding assay.
Series [2] deals with T2, BRD4BD2 (Homo sapiens, UniProt O60885). The description is as above.
The target of series [3] is T1, BRD4BD1 L94V. The experiment in a line: TAMRA-JQ1 displacement fluorescence polarization assay. The format is binding. The settings on record: 400 nM protein, 10 nM TAMRA-JQ1; N=1. For orientation: Polarisation of emitted light reports the rotation of a fluorescent probe.
The target in series [4] is T2, BRD4BD2. The description is as above. It is filed as binding.
Series [5] concerns MOLT4 cells. The experiment in a line: Whole proteome TMT LC-MS3 mass spectrometry profiling. It is filed as cell-based, human. The settings on record: 1 μM compound; for native off target degradation in whole proteome mass spectrometry: ~7,800 quantified proteins incl. BET family. Here is the method:
Lysis buffer (8 M Urea, 50 mM NaCl, 50 mM 4-(2hydroxyethyl)-1-piperazineethanesulfonic acid (EPPS) pH 8.5, Protease and Phosphatase inhibitors from Roche®) were added to the cell pellets and homogenized by 20 passes through a 21 gauge (1.25 in. long) needle to achieve a cell lysate with a protein concentration between 1-4 mg mL^−1. A micro-BCA assay (Pierce™) was used to determine the final protein concentration in the cell lysate. 200 μg of protein for each sample were reduced and alkylated as previously described in Donovan et al., Elife 7: e38430 (2018).
Proteins were precipitated using methanol/chloroform. In brief, four volumes of methanol were added to the cell lysate, followed by one volume of chloroform, and finally three volumes of water. The mixture was vortexed and centrifuged to separate the chloroform phase from the aqueous phase. The precipitated protein was washed with three volumes of methanol, centrifuged and the resulting washed precipitated protein was allowed to air dry. Precipitated protein was resuspended in 4 M Urea, 50 mM 2-[4-(2-hydroxyethyl)piperazin-1-yl]ethanesulfonic acid (HEPES) pH 7.4, followed by dilution to 1 M urea with the addition of 200 mM EPPS, pH 8. Proteins were first digested with LysC (1:50; enzyme:protein) for 12 hours at room temperature. The LysC digestion was diluted to 0.5 M Urea with 200 mM EPPS pH 8 followed by digestion with trypsin (1:50; enzyme:protein) for 6 hours at 37° C. Tandem mass tag (TMT) reagents (Thermo Fisher Scientific) were dissolved in anhydrous acetonitrile (ACN) according to manufacturer's instructions. Anhydrous ACN was added to each peptide sample to a final concentration of 30% v/v, and labeling was induced with the addition of TMT reagent to each sample at a ratio of 1:4 peptide:TMT label. The 10-plex labeling reactions were performed for 1.5 hours at room temperature and the reaction quenched by the addition of hydroxylamine to a final concentration of 0.3% for 15 minutes at room temperature.
The sample channels were combined at a 1:1:1:1:1:1:1:1:1:1:1 ratio, desalted using C18 solid phase extraction cartridges (Waters®) and analyzed by LC-MS for channel ratio comparison. Samples were then combined using the adjusted volumes determined in the channel ratio analysis and dried down in a speed vacuum. The combined sample was then resuspended in 1% formic acid, and acidified (pH 2-3) before being subjected to desalting with C18 SPE (Sep-Pak®, Waters®). Samples were then offline fractionated into 96 fractions by high pH reverse-phase HPLC (Agilent LC1260) through an aeris peptide xb-c18 column (Phenomenex®) with mobile phase A containing 5% acetonitrile and 10 mM NH4HCO3 in LC-MS grade H2O, and mobile phase B containing 90% acetonitrile and 10 mM NH4HCO3 in LC-MS grade H2O (both pH 8.0). […]

The conditions of series [6]: male, C57BL/6, mouse, in vivo, iv, 2 mg/kg.
The conditions of series [7]: in vivo, ip, 10 mg/kg; for AUCINF / AUClast / F / MRTINF / MRTlast: male, C57BL/6, mouse.
For series [8], the target named is BRD4 BD1 (Homo sapiens, UniProt O60885). As to the kind of experiment: FITC-JQ1 displacement fluorescence polarization competitive binding assay. The settings on record: read-out: IC50 from competitive binding assay.
The target in series [9] is BRD4BD2-EGFP (Homo sapiens, UniProt O60885). The experiment in a line: Cellular degradation EGFP/mCherry reporter assay (Acumen) in Flp293T cells. The settings on record: highest tested concentration of 10 μM. (A reporter such as luciferase makes a cellular process visible.)
The target of series [10] is BRD4BD1-EGFP (Homo sapiens, UniProt O60885). The description is as above.
Setting [11] is: read-out: IC50 from competitive binding assay.
The mark [12] stands for this setting: 50 nM protein, 10 nM TAMRA-JQ1, N=1, read-out: IC50.
Setting [13] is: FITC-JQ1 assay, read-out: IC50, wild type BRD4BD2.
[14] abbreviates: IC50, wild type BRD4BD2, TAMRA-JQ1 assay.

Usually IC50 stands for the concentration needed to halve the response being measured. In the case of `COc1ccc2c(c1)C(c1ccc(Cl)cc1)=N[C@@H]([C@@H](C)C(=O)NCCCCCNC(=O)COc1cccc3c1C(=O)N(C1CCC(=O)NC1=O)C3=O)c1nnc(C)n1-2` (stereo partly drawn) [Compound 1, (2R)-2-((4S)-6-(4-chlorophenyl)-8-methoxy-1-methyl-4H-benzo[f][1,2,4]triazolo [4,3-a][1,4]diazepin-4-yl)-N-(5-(2-((2-(2,6-dioxopiperidin-3-yl)-1,3-dioxoisoindolin-4-yl)oxy)acetamido)pentyl)propanamide], the IC50 in [1] was 132 ± 10 nM. In addition, in [2] (setting [11]), the IC50 came to 3500 ± 110 nM. This molecule gave an IC50 in series [3] of 125 nM. For the same molecule, the 50% inhibitory concentration (IC50) in series [4] (setting [12]) was 7870 nM. In addition, in series [5], the “LIMK2 expression in response to treatment” value is “unchanged” and the “native off target degradation in whole proteome mass spectrometry” value is reported as “did not degrade any native BET bromodomains, or any other unrelated off targets; also recorded: no native off target degradation was detected”. Further, in series [6], the AUCINF worked out at 1.88 µM·h, the AUClast stood at 1.88 µM·h, the C0 stood at 8.4 µM and the MRTINF amounted to 17.3 min. Moreover, the MRTlast in [6] was 17 min. In series [7], this molecule gave an AUCINF of 7.21 µM·h, an AUClast of 7.31 µM·h, an F of 77.7% and an MRTINF of 56.6 min. Moreover, the MRTlast in series [7] turned out to be 56.2 min. Also, the “time plasma concentration maintained above DC50,6h of 10 nM” value in series [7] (mouse) is “approximately 6 h”. In addition, the IC50 in series [8] is 1260 ± 60 nM.

For `COc1ccc2c(c1)C(c1ccc(Cl)cc1)=N[C@@H]([C@@H](C)C(=O)NCCCCCCCNC(=O)COc1cccc3c1C(=O)N(C1CCC(=O)NC1=O)C3=O)c1nnc(C)n1-2` (stereo partly drawn) [Compound 2, (2R)-2-((4S)-6-(4-chlorophenyl)-8-methoxy-1-methyl-4H-benzo[f][1,2,4]triazolo[4,3-a][1,4]diazepin-4-yl)-N-(7-(2-((2-(2,6-dioxopiperidin-3-yl)-1,3-dioxoisoindolin-4-yl)oxy)acetamido)heptyl)propanamide], the IC50 in series [1] stood at 98 ± 6 nM; in [2] (setting [13]) it was 2000 nM; in series [2] (setting [11]) it was 1990 ± 86 nM; in [3] it was 109 nM; in series [4] (setting [14]), 6400 nM; in [8] it was 525 ± 39 nM. Besides, in [9], the “degradation of BRD4BD2” value was “approximately 10%”.

A word on the DC50: it is the concentration at which degradation of the target reaches its halfway point. Regarding `COc1ccc2c(c1)C(c1ccc(Cl)cc1)=N[C@@H]([C@@H](C)C(=O)NCCCCCCCCCNC(=O)COc1cccc3c1C(=O)N(C1CCC(=O)NC1=O)C3=O)c1nnc(C)n1-2` (stereo partly drawn) [Compound 3, (2R)-2-((4S)-6-(4-chlorophenyl)-8-methoxy-1-methyl-4H-benzo[f][1,2,4]triazolo[4,3-α][1,4]diazepin-4-yl)-N-(9-(2-((2-(2,6-dioxopiperidin-3-yl)-1,3-dioxoisoindolin-4-yl)oxy)acetamido)nonyl)propanamide], the IC50 was 63 ± 4 nM in series [1]; 2240 ± 200 nM in series [2] (setting [11]); 96.4 nM in series [3]; 6890 nM in series [4] (setting [12]); 260 ± 32 nM in series [8]. The DC50 in series [10] (read-out: DC50,6h, BRD4BD1 reporter cell line, 6-hour incubation, ± S.E., N=3) is 1840 nM.

In the case of `COc1ccc2c(c1)C(c1ccc(Cl)cc1)=N[C@@H]([C@@H](C)C(=O)NCCOCCNC(=O)COc1cccc3c1C(=O)N(C1CCC(=O)NC1=O)C3=O)c1nnc(C)n1-2` (stereo partly drawn) [Compound 4, (2R)-2-((4S)-6-(4-chlorophenyl)-8-methoxy-1-methyl-4H-benzo[f][1,2,4]triazolo[4,3-α][1,4]diazepin-4-yl)-N-(2-(2-(2-((2-(2,6-dioxopiperidin-3-yl)-1,3-dioxoisoindolin-4-yl)oxy)acetamido)ethoxy)ethyl)propanamide], the IC50 in [1] is 218 ± 19 nM; in series [2] (setting [13]) it was 7000 nM; in series [2] (setting [11]) it was 6970 ± 300 nM; in series [3] it was 207 nM; in [4] (setting [12]), 30600 nM; in series [4] (setting [14]) it was 30000 nM. For the same molecule, the IC50 in series [8] is 3130 ± 160 nM.

Molecule `COc1ccc2c(c1)C(c1ccc(Cl)cc1)=N[C@@H]([C@@H](C)C(=O)NCCOCCOCCNC(=O)COc1cccc3c1C(=O)N(C1CCC(=O)NC1=O)C3=O)c1nnc(C)n1-2` (stereo partly drawn) [Compound 5, (2R)-2-((4S)-6-(4-chlorophenyl)-8-methoxy-1-methyl-4H-benzo[f][1,2,4]triazolo [4,3-α][1,4]diazepin-4-yl)-N-(2-(2-(2-(2-((2-(2,6-dioxopiperidin-3-yl)-1,3-dioxoisoindolin-4-yl)oxy)acetamido)ethoxy)ethoxy)ethyl) propanamide] showed a half-inhibitory concentration (IC50) in [1] of 168 ± 18 nM. Besides, the IC50 in series [2] (setting [11]) came to 3040 ± 89 nM. Moreover, the IC50 in [3] stood at 183 nM. Further, the half-inhibitory concentration (IC50) in series [4] (setting [12]) was found to be 3890 nM. Further, in series [5], the “LIMK2 expression in response to treatment” value is “upregulated” and the “native off target degradation in whole proteome mass spectrometry” value is on record as “did not degrade any native BET bromodomains, or any other unrelated off targets; also recorded: no native off target degradation was detected”. In series [6], this molecule showed an AUCINF of 1.57 µM·h, an AUClast of 1.57 µM·h, a C0 of 9.59 µM and an MRTINF of 12.6 min. Moreover, the MRTlast in series [6] stood at 12.5 min. Also, in [7], the AUCINF is 4.30 µM·h, the AUClast was 4.30 µM·h, the F is on record as 54.8% and the MRTINF turned out to be 41.4 min. The molecule also gave an MRTlast in series [7] of 41.3 min. For the same molecule, the 50% inhibitory concentration (IC50) in [8] was 2080 ± 140 nM. The “degradation of BRD4BD1 at 1 μM” value in series [10] (1 μM concentration) is listed as “no degradation”.
